Laboratory results from ChEMBL document CHEMBL1129871, “INVESTIGATION OF BIOISOSTERS OF THE GROWTH HORMONE SECRETAGOGUE L-692,429” (Bioorg Med Chem Lett, 1997).
Non-standard residues stand in square brackets, D forms with d. Residues, ends and D or L forms follow the SMILES beside them.

Species: Rattus norvegicus
Test: The compound was tested in vitro for the growth hormone release in rat pituitary cell assays
Type: functional, Pituitary gland cell
[1] = Rattus norvegicus, Pituitary gland cell

With `Cc1noc(-c2ccccc2-c2ccc(CN3C(=O)[C@H](NC(=O)CC(C)(C)N)CCc4ccccc43)cc2)n1` the EC50 [1] was 1050 nM.

With `Cn1ncnc1-c1ccccc1-c1ccc(CN2C(=O)[C@H](NC(=O)CC(C)(C)N)CCc3ccccc32)cc1` the EC50 [1] was 265 nM.

`CC(C)(N)CC(=O)N[C@@H]1CCc2ccccc2N(Cc2ccc(-c3sccc3-c3nn[nH]n3)cc2)C1=O` gave an EC50 [1] of 140 nM.

In the case of `CC(C)(N)CC(=O)N[C@@H]1CCc2ccccc2N(Cc2ccc(-c3cscc3-c3nn[nH]n3)cc2)C1=O`, the EC50 [1] is reported as 150 nM.

With `CC(C)(N)CC(=O)N[C@@H]1CCc2ccccc2N(Cc2ccc(-n3cccc3-c3nn[nH]n3)cc2)C1=O` the EC50 [1] was 275 nM.

`CC(C)(N)CC(=O)N[C@@H]1CCc2ccccc2N(Cc2ccc(-c3ccccc3-c3nc[nH]n3)cc2)C1=O` showed an EC50 [1] of 90 nM.

Work on `CC(C)(N)CC(=O)N[C@@H]1CCc2ccccc2N(Cc2ccc(-c3cccnc3-c3nn[nH]n3)cc2)C1=O` yielded an EC50 [1] of 2350 nM.

Compound `COc1nsnc1-c1ccccc1-c1ccc(CN2C(=O)[C@H](NC(=O)CC(C)(C)N)CCc3ccccc32)cc1` has an EC50 [1] of 1800 nM.

In the case of `CC(C)(N)CC(=O)N[C@@H]1CCc2ccccc2N(Cc2ccc(-c3ccccc3-c3ncno3)cc2)C1=O`, the EC50 [1] is reported as 30 nM.

`CC(C)(N)CC(=O)N[C@@H]1CCc2ccccc2N(Cc2ccc(-c3ccccc3-c3nn[nH]n3)cc2)C1=O` showed an EC50 (pituitary gland cell) of 125 nM.

Compound `Cc1nnc(-c2cscc2-c2ccc(CN3C(=O)[C@H](NC(=O)CC(C)(C)N)CCc4ccccc43)cc2)o1` has an EC50 [1] of 125 nM.

With `CC(C)(N)CC(=O)N[C@@H]1CCc2ccccc2N(Cc2ccc(-c3ccccc3C(=O)O)cc2)C1=O` the EC50 [1] was 2500 nM.

`C[C@H](NC(=O)[C@@H](Cc1c[nH]c2ccccc12)NC(=O)[C@@H](N)Cc1c[nH]cn1)C(=O)N[C@@H](Cc1c[nH]c2ccccc12)C(=O)N[C@H](Cc1ccccc1)C(=O)N[C@@H](CCCCN)C(N)=O` (H-H[dW]AW[dF]K-NH2) gave an EC50 [1] of 2 nM.
